Test results as given in ChEMBL document CHEMBL4765277, “Design, synthesis and biological evaluation of novel indazole-based derivatives as potent HDAC inhibitors via fragment-based virtual screening” (Eur J Med Chem, 2020).
Calls of active or inactive are those of the source. The rule behind the calls is not given here.

Tests used:
HCT-116 [1] = test: Induction of apoptosis in human HCT-116 cells assessed as late apoptotic cells at 1 uM after 24 hrs by Annexin V-FITC/PI staining based flow cytometric analysis (reference value: 5.14%); type: functional
HCT-116 [2] = test: Induction of apoptosis in human HCT-116 cells assessed as late apoptotic cells at 3 uM after 24 hrs by Annexin V-FITC/PI staining based flow cytometric analysis (reference value: 5.14%); type: functional
HCT-116 [3] = test: Antiproliferative activity against human HCT-116 cells assessed as reduction in cell viability after 72 hrs by MTT assay; type: functional, cell-based; conditions: HCT-116, 72 h
HCT-116 [4] = test: Induction of apoptosis in human HCT-116 cells assessed as late apoptotic cells at 10 uM after 24 hrs by Annexin V-FITC/PI staining based flow cytometric analysis (reference value: 5.14%); type: functional
HCT-116 [5] = test: Induction of apoptosis in human HCT-116 cells assessed as early apoptotic cells at 10 uM after 24 hrs by Annexin V-FITC/PI staining based flow cytometric analysis (reference value: 4.01%); type: functional
HCT-116 [6] = test: Induction of apoptosis in human HCT-116 cells assessed as necrotic cells at 1 uM after 24 hrs by Annexin V-FITC/PI staining based flow cytometric analysis (reference value: 0.51%); type: functional
HCT-116 [7] = test: Induction of apoptosis in human HCT-116 cells assessed as early apoptotic cells at 1 uM after 24 hrs by Annexin V-FITC/PI staining based flow cytometric analysis (reference value: 4.01%); type: functional
HeLa = test: cells; type: functional, cell-based; conditions: Homo sapiens, 72 h
Description: Antiproliferative activity against human HeLa cells assessed as reduction in cell viability after 72 hrs by MTT assay

HCT-116 [8] = test: Induction of cell cycle arrest in human HCT116 cells assessed as cell accumulation at S phase at 3 uM after 24 hrs by Rnase/PI staining based flow cytometric analysis (reference value: 25.2%); type: functional
Histone deacetylase 8 = biological target: T1, Histone deacetylase 8 (Homo sapiens, UniProt Q9BY41); test: Inhibition of recombinant human full length C-terminal His-tagged HDAC8 expressed in sf9 insect cells using Boc-Lys(TFA)-AM as substrate incubated for 60 mins by fluorescence assay
T1 sequence (Q9BY41 whole entry): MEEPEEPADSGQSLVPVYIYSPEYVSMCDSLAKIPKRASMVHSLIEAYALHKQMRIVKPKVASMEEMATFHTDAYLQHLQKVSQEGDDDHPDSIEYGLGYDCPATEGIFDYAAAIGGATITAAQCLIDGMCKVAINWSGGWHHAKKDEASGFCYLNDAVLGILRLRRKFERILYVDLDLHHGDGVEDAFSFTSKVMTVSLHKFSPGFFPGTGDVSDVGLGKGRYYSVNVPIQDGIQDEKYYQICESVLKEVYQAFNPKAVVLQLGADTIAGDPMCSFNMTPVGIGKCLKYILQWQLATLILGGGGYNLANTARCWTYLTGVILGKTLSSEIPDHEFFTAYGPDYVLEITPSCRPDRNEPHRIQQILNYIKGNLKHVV

HCT-116 [9] = test: Induction of cell cycle arrest in human HCT116 cells assessed as cell accumulation at G2/M phase at 3 uM after 24 hrs by Rnase/PI staining based flow cytometric analysis (reference value: 26.4%); type: functional
Histone deacetylase 2 = Histone deacetylase 2 (Homo sapiens, UniProt Q92769); test: Inhibition of recombinant human C-terminal His-tagged HDAC2 (1 to end residues) expressed in sf9 insect cells using Boc-Lys(Ac)-AMC as substrate incubated for 60 mins by fluorescence assay
HCT-116 [10] = test: Inhibition of HDAC in human HCT-116 cells assessed as up regulation of acetylated tubulin protein expression at 1.25 to 10 uM after 8 hrs by Western blot analysis; type: cell-based; conditions: dose 1.25-10 µM
HCT-116 [11] = test: Induction of apoptosis in human HCT-116 cells assessed as necrotic cells at 10 uM after 24 hrs by Annexin V-FITC/PI staining based flow cytometric analysis (reference value: 0.51%); type: functional
Histone deacetylase 1 = Histone deacetylase 1 (Homo sapiens, UniProt Q13547); test: Inhibition of recombinant human C-terminal His/FLAG-tagged HDAC1 (1 to end residues) expressed in sf9 insect cells using Boc-Lys(Ac)-AMC as substrate incubated for 60 mins by fluorescence assay
HCT-116 [12] = test: Induction of apoptosis in human HCT-116 cells assessed as necrotic cells at 3 uM after 24 hrs by Annexin V-FITC/PI staining based flow cytometric analysis (reference value: 0.51%); type: functional
HCT-116 [13] = test: Induction of apoptosis in human HCT-116 cells assessed as viable cells at 3 uM after 24 hrs by Annexin V-FITC/PI staining based flow cytometric analysis (reference value: 90.34%); type: functional; conditions: for viability at 3 µM: Homo sapiens, HCT-116, read-out: Activity
HCT-116 [14] = test: Induction of cell cycle arrest in human HCT116 cells assessed as cell accumulation at G0/G1 phase at 3 uM after 24 hrs by Rnase/PI staining based flow cytometric analysis (reference value: 48.4%); type: functional
MCF7 = test: cells; conditions: Homo sapiens, MCF7, 72 h
Description: Antiproliferative activity against human MCF7 cells assessed as reduction in cell viability after 72 hrs by MTT assay

HCT-116 [15] = test: Inhibition of HDAC in human HCT-116 cells assessed as up regulation of acetylated histone H3 protein expression at 1.25 to 10 uM after 8 hrs by Western blot analysis; type: cell-based; conditions: dose 1.25-10 µM
HCT-116 [16] = test: Induction of apoptosis in human HCT-116 cells assessed as viable cells at 10 uM after 24 hrs by Annexin V-FITC/PI staining based flow cytometric analysis (reference value: 90.34%); type: functional; conditions: read-out: Activity
HCT-116 [17] = test: Induction of apoptosis in human HCT-116 cells assessed as viable cells at 1 uM after 24 hrs by Annexin V-FITC/PI staining based flow cytometric analysis (reference value: 90.34%); type: functional; conditions: for viability at 1 µM: Homo sapiens, HCT-116, read-out: Activity
HCT-116 [18] = test: Induction of apoptosis in human HCT-116 cells assessed as early apoptotic cells at 3 uM after 24 hrs by Annexin V-FITC/PI staining based flow cytometric analysis (reference value: 4.01%); type: functional
HCT-116 [19] = test: Induction of apoptosis in human HCT-116 cells after 24 hrs by Annexin V-FITC/PI staining based flow cytometric analysis; type: functional, cell-based

Sequence of Histone deacetylase 1 (Q13547 whole entry): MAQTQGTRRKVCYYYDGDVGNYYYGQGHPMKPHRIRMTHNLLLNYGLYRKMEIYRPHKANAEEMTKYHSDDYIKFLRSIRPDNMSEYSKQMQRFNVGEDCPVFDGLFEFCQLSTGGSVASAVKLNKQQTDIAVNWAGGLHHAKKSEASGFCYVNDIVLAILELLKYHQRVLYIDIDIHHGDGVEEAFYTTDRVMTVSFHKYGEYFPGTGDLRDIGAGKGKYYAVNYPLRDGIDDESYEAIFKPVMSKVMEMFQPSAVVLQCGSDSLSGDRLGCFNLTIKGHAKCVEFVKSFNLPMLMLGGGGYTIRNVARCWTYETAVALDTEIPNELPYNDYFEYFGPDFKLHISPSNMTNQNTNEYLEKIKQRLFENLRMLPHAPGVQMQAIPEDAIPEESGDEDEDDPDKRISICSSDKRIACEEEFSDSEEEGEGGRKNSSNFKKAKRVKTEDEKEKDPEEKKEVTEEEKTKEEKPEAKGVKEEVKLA
Sequence of Histone deacetylase 2 (Q92769 whole entry): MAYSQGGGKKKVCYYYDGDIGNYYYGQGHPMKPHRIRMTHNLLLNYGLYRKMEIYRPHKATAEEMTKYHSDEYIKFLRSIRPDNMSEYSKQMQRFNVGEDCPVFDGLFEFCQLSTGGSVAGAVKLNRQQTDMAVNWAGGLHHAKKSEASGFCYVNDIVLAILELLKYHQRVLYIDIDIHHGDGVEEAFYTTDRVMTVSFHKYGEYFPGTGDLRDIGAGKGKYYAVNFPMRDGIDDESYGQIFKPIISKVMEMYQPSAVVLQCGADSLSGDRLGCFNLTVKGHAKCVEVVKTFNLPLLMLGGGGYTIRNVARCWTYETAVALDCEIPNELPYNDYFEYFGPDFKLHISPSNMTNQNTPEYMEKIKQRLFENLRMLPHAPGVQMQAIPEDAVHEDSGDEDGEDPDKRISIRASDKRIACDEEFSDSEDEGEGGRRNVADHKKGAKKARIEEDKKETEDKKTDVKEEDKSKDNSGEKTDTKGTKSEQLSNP

COc1ccc(-c2ccc3c(NC(=O)CCCCCCC(=O)NO)n[nH]c3n2)cc1
Activity (HCT-116 [1]): 5.52%
Activity (HCT-116 [2]): 7.8%
IC50 (HCT-116 [3]): 4100 nM
Activity (HCT-116 [4]): 13.34%
Activity (HCT-116 [5]): 5.75%
Activity (HCT-116 [6]): 0.31%
Activity (HCT-116 [7]): 2.34%
IC50 (HeLa): 4800 nM
Activity (HCT-116 [8]): 26.1%
IC50 (Histone deacetylase 8): 7.2 nM
Activity (HCT-116 [9]): 23.9%
IC50 (Histone deacetylase 2): 9 nM
inhibition (HCT-116 [10]): Active
Activity (HCT-116 [11]): 1.1%
IC50 (Histone deacetylase 1): 6 nM
Activity (HCT-116 [12]): 0.24%
viability at 3 µM (HCT-116 [13]): 89.1%
Activity (HCT-116 [14]): 50%
IC50 (MCF7): 1200 nM
inhibition (HCT-116 [15]): Active
viability at 10 µM (HCT-116 [16]): 79.8%
viability at 1 µM (HCT-116 [17]): 91.8%
Activity (HCT-116 [18]): 2.89%

COc1ccc(-c2ccc3c(NC(=O)CCCCCCC(=O)NO)n[nH]c3c2)cc1
Activity (HCT-116 [1]): 40.02%
Activity (HCT-116 [2]): 54.58%
IC50 (HCT-116 [3]): 2100 nM
Activity (HCT-116 [4]): 62.58%
Activity (HCT-116 [5]): 15.64%
Activity (HCT-116 [6]): 0.27%
Activity (HCT-116 [7]): 17.34%
IC50 (HeLa): 4400 nM
Activity (HCT-116 [8]): 26.9%
IC50 (Histone deacetylase 8): 3.6 nM
Activity (HCT-116 [9]): 43.3%
IC50 (Histone deacetylase 2): 4.2 nM
inhibition (HCT-116 [10]): Active
Activity (HCT-116 [11]): 1.19%
IC50 (Histone deacetylase 1): 2.7 nM
Activity (HCT-116 [12]): 0.33%
viability at 3 µM (HCT-116 [13]): 31.4%
Activity (HCT-116 [14]): 29.8%
IC50 (MCF7): 900 nM
Activity (HCT-116 [19]): Dose-dependent effect
inhibition (HCT-116 [15]): Active
viability at 10 µM (HCT-116 [16]): 20.6%
viability at 1 µM (HCT-116 [17]): 42.4%
Activity (HCT-116 [18]): 13.72%

O=C(CCCCCCC(=O)Nc1n[nH]c2cc(-c3ccc(Cl)cc3)ccc12)NO
Activity (HCT-116 [1]): 46.29%
Activity (HCT-116 [2]): 64.75%
IC50 (HCT-116 [3]): 3900 nM
Activity (HCT-116 [4]): 61.98%
Activity (HCT-116 [5]): 12.32%
Activity (HCT-116 [6]): 2.41%
Activity (HCT-116 [7]): 8.73%
IC50 (HeLa): 4800 nM
Activity (HCT-116 [8]): 29.7%
IC50 (Histone deacetylase 8): 3.3 nM
Activity (HCT-116 [9]): 44.1%
IC50 (Histone deacetylase 2): 3.6 nM
inhibition (HCT-116 [10]): Active
Activity (HCT-116 [11]): 2.47%
IC50 (Histone deacetylase 1): 3.1 nM
Activity (HCT-116 [12]): 0.86%
viability at 3 µM (HCT-116 [13]): 24%
Activity (HCT-116 [14]): 26.2%
IC50 (MCF7): 1000 nM
Activity (HCT-116 [19]): Dose-dependent effect
inhibition (HCT-116 [15]): Active
viability at 10 µM (HCT-116 [16]): 23.2%
viability at 1 µM (HCT-116 [17]): 40.6%
Activity (HCT-116 [18]): 10.36%

O=C(CCCCCCC(=O)Nc1ccccc1)NO [VORINOSTAT]
Activity (HCT-116 [1]): 57.83%
Activity (HCT-116 [2]): 67.78%
IC50 (HCT-116 [3]): 4900 nM
Activity (HCT-116 [4]): 67.72%
Activity (HCT-116 [5]): 14.44%
Activity (HCT-116 [7]): 12.87%
Activity (HCT-116 [8]): 29.4%
Activity (HCT-116 [9]): 44.2%
Activity (HCT-116 [11]): 1.37%
Activity (HCT-116 [12]): 2.03%
Activity (HCT-116 [13]): 17.93%
Activity (HCT-116 [14]): 26.2%
IC50 (MCF7): 800 nM
Activity (HCT-116 [17]): 77.54%
Activity (HCT-116 [18]): 12.27%

O=C(CCCCCCC(=O)Nc1n[nH]c2cc(-c3ccccc3)ccc12)NO
IC50 (HCT-116 [3]): 10200 nM
IC50 (HeLa): 12500 nM
IC50 (Histone deacetylase 8): 12.6 nM
IC50 (Histone deacetylase 2): 13.1 nM
IC50 (Histone deacetylase 1): 9.6 nM
IC50 (MCF7): 5500 nM
